The assay concerns the target CDK7 (Homo sapiens (Human), UniProt P50613). Description: Inhibition of kinase activity, CDK7. Type of assay: biochemical. Particulars: co-factors cyclin H and MNAT1. As to the method: Compounds of the invention were assayed for activity against a variety of different kinases. Exemplary results are presented as calculated IC50 values (Table A1 & A2). In Table A1 and A2 “A” represents a calculated IC50 value of less than 100 nM; “B” represents a calculated IC50 value of greater than or equal to 100 nM and less than 1 μM; and “C” represents a calculated IC50 value of 1 μM or greater. The co-factors used for each kinase in the assays were as follows: CDK7: cyclin H and MNAT1; CDK2: cyclin A; CDK9: cyclin K.

Structures are written as SMILES.

CDK7, sequence (P50613 whole entry): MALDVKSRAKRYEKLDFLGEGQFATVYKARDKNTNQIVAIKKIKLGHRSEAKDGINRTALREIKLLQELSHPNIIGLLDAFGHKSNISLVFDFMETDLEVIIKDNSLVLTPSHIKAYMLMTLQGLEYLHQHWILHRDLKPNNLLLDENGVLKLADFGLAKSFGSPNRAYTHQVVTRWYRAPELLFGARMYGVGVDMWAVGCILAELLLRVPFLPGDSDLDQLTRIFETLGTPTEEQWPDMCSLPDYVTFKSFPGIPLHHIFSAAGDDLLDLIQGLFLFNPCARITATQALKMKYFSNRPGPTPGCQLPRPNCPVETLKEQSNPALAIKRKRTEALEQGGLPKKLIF
CDK7, sequence (P51946 whole entry partner): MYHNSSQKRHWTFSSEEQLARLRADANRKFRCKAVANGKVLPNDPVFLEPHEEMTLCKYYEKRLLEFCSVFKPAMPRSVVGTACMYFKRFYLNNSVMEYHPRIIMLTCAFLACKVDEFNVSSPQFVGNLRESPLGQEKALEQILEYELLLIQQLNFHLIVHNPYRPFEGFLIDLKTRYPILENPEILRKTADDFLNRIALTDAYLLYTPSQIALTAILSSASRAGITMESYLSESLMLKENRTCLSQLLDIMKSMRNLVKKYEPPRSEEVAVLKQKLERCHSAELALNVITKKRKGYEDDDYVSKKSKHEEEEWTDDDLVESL
CDK7, sequence (P51948 whole entry partner): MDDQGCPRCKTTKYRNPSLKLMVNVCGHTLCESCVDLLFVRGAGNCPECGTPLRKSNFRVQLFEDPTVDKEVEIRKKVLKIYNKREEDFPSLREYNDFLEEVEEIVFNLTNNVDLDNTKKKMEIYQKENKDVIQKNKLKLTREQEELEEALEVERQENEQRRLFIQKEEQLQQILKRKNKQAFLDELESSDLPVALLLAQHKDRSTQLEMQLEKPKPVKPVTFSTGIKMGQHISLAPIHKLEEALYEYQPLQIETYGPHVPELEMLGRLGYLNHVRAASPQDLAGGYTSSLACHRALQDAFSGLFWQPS

Usually IC50 stands for the concentration that inhibits the measured activity by half. Read a high IC50 as a need for much substance. `C=CC(=O)Nc1cccc(C(=O)Nc2ccc(Nc3n[nH]c4c3CN(C(=O)N[C@H](CN(C)C)c3ccccc3)C4(C)C)cc2)c1` [Compound 103, (S)-3-((4-(3-acrylamidobenzamido)phenyl)amino)-N-(2-(dimethylamino)-1-phenylethyl)-6,6-dimethyl-4,6-dihydropyrrolo[3,4-c]pyrazole-5(1H)-carboxamide]: the 50% inhibitory concentration (IC50) is under 100 nM.

The compound `C=CC(=O)Nc1cccc(C(=O)Nc2cccc(Nc3n[nH]c4c3CN(C(=O)N[C@H](CN(C)C)c3ccccc3)C4(C)C)c2)c1` [Compound 105, (S)-3-((3-(3-acrylamidobenzamido)phenyl)amino)-N-(2-(dimethylamino)-1-phenylethyl)-6,6-dimethyl-4,6-dihydropyrrolo[3,4-c]pyrazole-5(1H)-carboxamide] displayed an IC50 of under 100 nM.

As for `C=CC(=O)Nc1ccc(C(=O)Nc2cccc(Nc3n[nH]c4c3CN(C(=O)NC(C)CN(C)C)C4(C)C)c2)cc1` (stereo not shown) [Compound 108, 3-((3-(4-acrylamidobenzamido)phenyl)amino)-N-(1-(dimethylamino)propan-2-yl)-6,6-dimethyl-4,6-dihydropyrrolo[3,4-c]pyrazole-5(1H)-carboxamide], the IC50 is under 100 nM.

For `CN(C)C/C=C/C(=O)Nc1ccc(C(=O)Nc2cccc(Nc3n[nH]c4c3CN(C(=O)N[C@H](CO)c3ccccc3)C4(C)C)c2)cc1` [Compound 109, (S,E)-3-((3-(4-(4-(dimethylamino)but-2-enamido)benzamido)phenyl)amino)-N-(2-hydroxy-1-phenylethyl)-6,6-dimethyl-4,6-dihydropyrrolo[3,4-c]pyrazole-5(1H)-carboxamide], the 50% inhibitory concentration (IC50) was under 100 nM.

Take `C=CC(=O)Nc1cccc(Nc2n[nH]c3c2CN(C(=O)N[C@H](CN(C)C)c2ccccc2)C3(C)C)c1` [Compound 110, (S)-3-((3-acrylamidophenyl)amino)-N-(2-(dimethylamino)-1-phenylethyl)-6,6-dimethyl-4,6-dihydropyrrolo[3,4-c]pyrazole-5(1H)-carboxamide]: the half-inhibitory concentration (IC50) was under 100 nM.

Turning to `C=CC(=O)Nc1ccc(Nc2n[nH]c3c2CN(C(=O)N[C@H](CN(C)C)c2ccccc2)C3(C)C)cc1` [Compound 111, (S)-3-((4-acrylamidophenyl)amino)-N-(2-(dimethylamino)-1-phenylethyl)-6,6-dimethyl-4,6-dihydropyrrolo[3,4-c]pyrazole-5(1H)-carboxamide], the IC50 was in the range of 100 to 1000 nM.

In turn, `C=CC(=O)N1CCC[C@@H](C(=O)Nc2n[nH]c3c2CN(C(=O)N[C@H](CN(C)C)c2ccccc2)C3(C)C)C1` [Compound 113, 3-((R)-1-acryloylpiperidine-3-carboxamido)-N-((S)-2-(dimethylamino)-1-phenylethyl)-6,6-dimethyl-4,6-dihydropyrrolo[3,4-c]pyrazole-5(1H)-carboxamide] gave an IC50 of under 100 nM.

Regarding `C=CC(=O)N1CCC[C@H](C(=O)Nc2n[nH]c3c2CN(C(=O)N[C@H](CN(C)C)c2ccccc2)C3(C)C)C1` [Compound 114, 3-((S)-1-acryloylpiperidine-3-carboxamido)-N-((S)-2-(dimethylamino)-1-phenylethyl)-6,6-dimethyl-4,6-dihydropyrrolo[3,4-c]pyrazole-5(1H)-carboxamide], the IC50 is under 100 nM.

As for `C=CC(=O)Nc1ccc(C(=O)N2CCCC(Nc3n[nH]c4c3CN(C(=O)N[C@H](CN(C)C)c3ccccc3)C4(C)C)C2)cc1` (stereo partly drawn) [Compound 115, 3-((1-(4-acrylamidobenzoyl)piperidin-3-yl)amino)-N-((S)-2-(dimethylamino)-1-phenylethyl)-6,6-dimethyl-4,6-dihydropyrrolo[3,4-c]pyrazole-5(1H)-carboxamide], the IC50 is under 100 nM.

`C=CC(=O)Nc1ccc(C(=O)N2CCC(Nc3n[nH]c4c3CN(C(=O)N[C@H](CN(C)C)c3ccccc3)C4(C)C)CC2)cc1` [Compound 116, (S)-3-((1-(4-acrylamidobenzoyl)piperidin-4-yl)amino)-N-(2-(dimethylamino)-1-phenylethyl)-6,6-dimethyl-4,6-dihydropyrrolo[3,4-c]pyrazole-5(1H)-carboxamide] showed an IC50 of under 100 nM.

With `C=CC(=O)Nc1ccc(C(=O)N[C@H]2CCC[C@@H](Nc3n[nH]c4c3CN(C(=O)N[C@H](CN(C)C)c3ccccc3)C4(C)C)C2)cc1` [Compound 117, 3-(((1R,3S)-3-(4-acrylamidobenzamido)cyclohexyl)amino)-N-((S)-2-(dimethylamino)-1-phenylethyl)-6,6-dimethyl-4,6-dihydropyrrolo[3,4-c]pyrazole-5(1H)-carboxamide], the IC50 is under 100 nM.

Compound `C=CC(=O)Nc1ccc(C(=O)N[C@@H]2CCC[C@@H](Nc3n[nH]c4c3CN(C(=O)N[C@H](CN(C)C)c3ccccc3)C4(C)C)C2)cc1` [Compound 118, 3-(((1R,3R)-3-(4-acrylamidobenzamido)cyclohexyl)amino)-N-((S)-2-(dimethylamino)-1-phenylethyl)-6,6-dimethyl-4,6-dihydropyrrolo[3,4-c]pyrazole-5(1H)-carboxamide] had an IC50 of under 100 nM.

Take `C=CC(=O)Nc1ccc(C(=O)NC2CCC(Nc3n[nH]c4c3CN(C(=O)N[C@H](CN(C)C)c3ccccc3)C4(C)C)CC2)cc1` (stereo partly drawn) [Compound 119, (S)-3-((4-(4-acrylamidobenzamido)cyclohexyl)amino)-N-(2-(dimethylamino)-1-phenylethyl)-6,6-dimethyl-4,6-dihydropyrrolo[3,4-c]pyrazole-5(1H)-carboxamide]: the IC50 is under 100 nM.

For `C=CC(=O)Nc1cccc(C(=O)Nc2n[nH]c3c2CN(C(=O)N[C@H](CN(C)C)c2ccccc2)C3(C)C)c1` [Compound 120, (S)-3-(3-acrylamidobenzamido)-N-(2-(dimethylamino)-1-phenylethyl)-6,6-dimethyl-4,6-dihydropyrrolo[3,4-c]pyrazole-5(1H)-carboxamide], the IC50 is under 100 nM.

For `C=CC(=O)N1CCC(C(=O)Nc2n[nH]c3c2CN(C(=O)N[C@H](CN(C)C)c2ccccc2)C3(C)C)CC1` [Compound 123, (S)-3-(1-acryloylpiperidine-4-carboxamido)-N-(2-(dimethylamino)-1-phenylethyl)-6,6-dimethyl-4,6-dihydropyrrolo[3,4-c]pyrazole-5(1H)-carboxamide], the IC50 was under 100 nM.

For `C=CC(=O)Nc1ccc(C(=O)Nc2n[nH]c3c2CN(C(=O)N[C@H](CN(C)C)c2ccccc2)C3(C)C)cc1` [Compound 214, (S)-3-(4-acrylamidobenzamido)-N-(2-(dimethylamino)-1-phenylethyl)-6,6-dimethyl-4,6-dihydropyrrolo[3,4-c]pyrazole-5(1H)-carboxamide], the concentration for half-maximal inhibition (IC50) is under 100 nM.

Regarding `CCC(=O)Nc1ccc(C(=O)Nc2n[nH]c3c2CN(C(=O)N[C@H](CN(C)C)c2ccccc2)C3(C)C)cc1` [Compound 215, (S)-N-(2-(dimethylamino)-1-phenylethyl)-6,6-dimethyl-3-(4-propionamidobenzamido)-4,6-dihydropyrrolo[3,4-c]pyrazole-5(1H)-carboxamide], the IC50 is under 100 nM.

`C=CC(=O)Nc1ccc(C(=O)Nc2n[nH]c3c2CN(C(=O)N[C@H](CN(C)C)c2ccccc2)C3(C)C)c(OC)c1` [Compound 216, (S)-3-(4-acrylamido-2-methoxybenzamido)-N-(2-(dimethylamino)-1-phenylethyl)-6,6-dimethyl-4,6-dihydropyrrolo[3,4-c]pyrazole-5(1H)-carboxamide] showed an IC50 of under 100 nM.

For `C=CC(=O)Nc1ccc(C(=O)Nc2n[nH]c3c2CN(C(=O)N[C@H](CN(C)C)c2ccccc2)C3(C)C)cc1OC` [Compound 217, (S)-3-(4-acrylamido-3-methoxybenzamido)-N-(2-(dimethylamino)-1-phenylethyl)-6,6-dimethyl-4,6-dihydropyrrolo[3,4-c]pyrazole-5(1H)-carboxamide], the half-inhibitory concentration (IC50) is under 100 nM.

With `C=CC(=O)N[C@H]1CC[C@H](C(=O)Nc2n[nH]c3c2CN(C(=O)N[C@H](CN(C)C)c2ccccc2)C3(C)C)CC1` [Compound 222, 3-((1r,4S)-4-acrylamidocyclohexane-1-carboxamido)-N-((S)-2-(dimethylamino)-1-phenylethyl)-6,6-dimethyl-4,6-dihydropyrrolo[3,4-c]pyrazole-5(1H)-carboxamide], the concentration for half-maximal inhibition (IC50) is under 100 nM.

Consider `C=CC(=O)N1CCC(Nc2n[nH]c3c2CN(C(=O)N[C@H](CN(C)C)c2ccccc2)C3(C)C)CC1` [Compound 231, (5)-3-((1-acryloylpiperidin-4-yl)amino)-N-(2-(dimethylamino)-1-phenylethyl)-6,6-dimethyl-4,6-dihydropyrrolo[3,4-c]pyrazole-5(1H)-carboxamide], for which the 50% inhibitory concentration (IC50) is under 100 nM.

`C=CC(=O)N1CCCC(Nc2n[nH]c3c2CN(C(=O)N[C@H](CN(C)C)c2ccccc2)C3(C)C)C1` (stereo partly drawn) [Compound 232, 3-((1-acryloylpiperidin-3-yl)amino)-N-((S)-2-(dimethylamino)-1-phenylethyl)-6,6-dimethyl-4,6-dihydropyrrolo[3,4-c]pyrazole-5(1H)-carboxamide] gave an IC50 of under 100 nM.

With `C=CC(=O)Nc1ccc(C(=O)Nc2n[nH]c3c2CN(C(=O)N[C@H](CN(C)C)c2ccccc2)C32CC2)cc1` [Compound 233, (S)-3′-(4-acrylamidobenzamido)-N-(2-(dimethylamino)-1-phenylethyl)-1′,4′-dihydro-5′H-spiro[cyclopropane-1,6′-pyrrolo[3,4-c]pyrazole]-5′-carboxamide], the IC50 is under 100 nM.

`C=CC(=O)Nc1ccc(C(=O)Nc2n[nH]c3c2CN(C(=O)N[C@H](CN(C)C)c2ccccc2)[C@@H]3C(C)C)cc1` [Compound 234, (R)-3-(4-acrylamidobenzamido)-N-((S)-2-(dimethylamino)-1-phenylethyl)-6-isopropyl-4,6-dihydropyrrolo[3,4-c]pyrazole-5(1H)-carboxamide]: the concentration for half-maximal inhibition (IC50) is under 100 nM.

For `C=CC(=O)Nc1ccc(C(=O)Nc2n[nH]c3c2CN(C(=O)N[C@H](CN(C)C)c2ccccc2)[C@H]3C(C)C)cc1` [Compound 235, (S)-3-(4-acrylamidobenzamido)-N-((S)-2-(dimethylamino)-1-phenylethyl)-6-isopropyl-4,6-dihydropyrrolo[3,4-c]pyrazole-5(1H)-carboxamide], the IC50 is at least 1000 nM.
